Results reported in BigSolDB 2.1.

CC(C)(c1ccc(O)cc1)c1ccc(O)cc1
solubility (mole fraction)
Conditions | 273.15 K | 278.15 K | 283.15 K | 288.15 K | 293.15 K | 298.15 K | 303.15 K | 308.15 K | 313.15 K
in 1,4-dioxane | – | – | – | 0.205 | 0.224 | 0.245 | 0.264 | 0.285 | 0.307
in DMF | 0.298 | 0.308 | 0.324 | 0.342 | 0.361 | 0.383 | 0.409 | 0.43 | 0.452
in acetone | 0.293 | 0.301 | 0.311 | 0.321 | – | – | – | – | –
in acetonitrile | 0.135 | 0.141 | 0.15 | 0.16 | 0.169 | 0.176 | 0.185 | 0.196 | 0.207
in cyclohexanone | 0.0936 | 0.111 | 0.126 | 0.142 | 0.158 | 0.176 | 0.195 | 0.215 | 0.235
in ethanol | 0.21 | 0.215 | 0.221 | 0.227 | 0.233 | 0.24 | 0.246 | 0.253 | 0.26
in ethyl acetate | 0.235 | 0.237 | 0.24 | 0.243 | 0.246 | 0.251 | 0.255 | 0.26 | 0.265
in formamide | – | 0.14 | 0.151 | 0.164 | 0.178 | 0.193 | – | 0.231 | 0.252
in isopropanol | 0.0503 | 0.0603 | 0.0719 | 0.0858 | 0.097 | 0.111 | 0.123 | 0.139 | 0.153
in methanol | 0.187 | 0.19 | 0.194 | 0.198 | 0.202 | 0.207 | 0.212 | 0.217 | 0.223
in methyl acetate | 0.236 | 0.237 | 0.239 | 0.241 | 0.246 | 0.249 | 0.253 | 0.257 | 0.261
in n-butanol | 0.0748 | 0.0833 | 0.0942 | 0.108 | 0.12 | 0.136 | 0.149 | 0.163 | 0.181
in n-propanol | 0.176 | 0.18 | 0.188 | 0.195 | 0.2 | 0.207 | 0.214 | 0.22 | 0.225
in sec-butanol | 0.0342 | 0.0397 | 0.0472 | 0.0566 | 0.0654 | 0.0735 | 0.083 | 0.093 | 0.104
